The values that follow come from patent publication EP0863214A2, “Reporter gene construct for measuring G protein coupled receptor activation” (SMITHKLINE BEECHAM CORPORATION, priority 1997, dated 1998).

Ends that are not written are not given here.

The test system of this test is HEK 293 cells transfected with MREII VIPII. In kind it is cell-based, Human. To be noted: wild-type HEK 293 cells or HEK 293 cells expressing the porcine CGRP receptor; endogenous receptors or direct activation of adenylyl cyclase; in the presence of IBMX. As to the method: Day 1: HEK293 cells at a density of 4.5x10^6/T-75 flask in Earl's Minimum Essential Medium (EMEM) supplemented with 10% fetal bovine serum and 2 mM glutamine were incubated overnight in a humidified tissue culture incubator at 37°C, 5% CO2.
Day 2: MREII VIPII DNA (7.8 µg) was mixed with 780 µl of serum free EMEM to produce Solution A. Lipofectamine (23.1 µl; Gibco-BRL) was mixed with 780 µl of serum EMEM to produce Solution B. Solutions A and B were then mixed gently and incubate at room temperature for 15-45 minutes. Cells were then rinsed with 15 ml of serum free EMEM and 6.25 ml of serum free EMEM was added. Combined solutions (A + B) were overlayed and the flask was placed in a tissue culture incubator for 5 hours. Media was replaced with 15 ml of EMEM/10% serum/ 2 mM glutamine and stored in the tissue culture incubator.
Day 3: Ninety-six well tissue culture plates were treated with Matrigel (50 µl/well diluted 1/50 with phosphate buffered saline (PBS); Collaborative Biomedical Products) for > 1 hour. Matrigel solution was then removed and the plate was transfected with HEK 293 cells at a cell density of 2.6 x 10^4/well in 100 µl of supplemented EMEM. […] Cells were then incubated for 6 hours in a humidified tissue culture incubator at 37°C, 5% CO2. Media was removed and cells were washed with 50 µl of PBS.
Cell lysis solution (50 µl; Promega) supplemented with AEBSF (0.24 mg/ml), pepstatin, leupeptin, and aprotinin (5µg/ml each), and DNAse I (50 µg/ml) was added and extracts were frozen. Ten microliters of thawed extract were added to assay plates along with 50 µl of reconstituted luciferase assay reagent (Promega) using a luminometer autoinjector (Dynex MLX) and samples were read. Luciferase activity is expressed as a fold enhancement over the basal luciferase activity expressed in cells that have not been challenged with agonist, IBMX, TPA, or forskolin.
For the compound `Nc1ncnc2c1ncn2[C@@H]1O[C@H](COP(=O)(O)OP(=O)(O)OP(=O)(O)O)[C@@H](O)[C@H]1O` [ATP], the Luciferase stimulation result is listed as “did not stimulate luciferase induction”.

For the compound `CCCCC[C@H](O)/C=C/[C@H]1[C@H](O)CC(=O)[C@@H]1C/C=C\CCCC(=O)O` [PGE2], the Luciferase stimulation entry was “Luciferase stimulation was observed”.

Take `Nc1ncnc2c1ncn2[C@@H]1O[C@H](CO)[C@@H](O)[C@H]1O` [adenosine]: the Luciferase stimulation result was “did not stimulate luciferase induction”.

`C[N+](C)(C)CCOC(N)=O` [carbachol]: the Luciferase stimulation result is on record as “did not stimulate luciferase induction”.

“VIP (HSDAVFTDNYTRLRKQMAVKKYLNSILN; not fully specified (C-terminus); ends and bridges not checked; UniProt P01282 125-152, looked up)”: the Luciferase stimulation result is “Luciferase stimulation was observed”.

For the compound “calcitonin (CGNLSTCMLGTYTQDFNKFHTFPQTAIGVGAP; not fully specified (C-terminus, bridges); ends and bridges not checked; UniProt P01258 85-116, looked up)”, the Luciferase stimulation entry is “Luciferase stimulation was observed”.

For “endothelin (CSCSSLMDKECVYFCHLDIIW; not fully specified (bridges); ends and bridges not checked; UniProt P05305 53-73, looked up)”, the Luciferase stimulation result was “did not stimulate luciferase induction”.
